Values of other authors, collected in patent publication US20080058642A1, “METHOD FOR DETECTING CORONARY ENDOTHELIAL DYSFUNCTION AND EARLY ATHEROSCLEROSIS” (BOARD OF REGENTS OF THE UNIVERSITY OF TEXAS SYSTEM, priority 2006, published 2008).

Target: T1, ETA-receptor (Homo sapiens, UniProt P25101)
T1 construct: host or cells: in vivo, heart failure trial
T1 sequence (P25101 21-427): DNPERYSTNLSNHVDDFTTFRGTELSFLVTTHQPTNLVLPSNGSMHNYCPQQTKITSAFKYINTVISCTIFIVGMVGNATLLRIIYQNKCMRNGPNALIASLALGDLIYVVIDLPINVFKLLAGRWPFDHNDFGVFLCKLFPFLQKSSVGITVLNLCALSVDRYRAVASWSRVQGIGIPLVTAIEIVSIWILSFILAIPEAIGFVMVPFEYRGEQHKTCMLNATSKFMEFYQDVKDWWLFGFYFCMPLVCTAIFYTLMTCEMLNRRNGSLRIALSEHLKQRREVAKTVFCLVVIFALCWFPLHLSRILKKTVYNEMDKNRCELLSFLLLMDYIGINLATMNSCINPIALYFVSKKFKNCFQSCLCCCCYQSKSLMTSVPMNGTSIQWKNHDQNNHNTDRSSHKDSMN
Conditions: recent randomized trial; cited from earlier work

In the case of `COc1cc(OC)nc(O[C@H](C(=O)O)C(OC)(c2ccccc2)c2ccccc2)n1` [Darusentan™], the “benefit in heart failure” value is given as “no benefit”.
